Source: the supplement of paper PMC7600603

Columns and labels:
[1] = system: DLD1 NRF2-WT; conditions: 72 h; CellTiter-Glo viability
How it was run: (§1)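 Library compounds were tested in 384-well plates at 5 concentrations covering a 10,000-fold span against isogenic DLD1 colorectal cancer cells, NRF2 wild-type or CRISPR gain-of-function, grown in DMEM with 10% FBS. Viability was measured at 72 h with CellTiter-Glo on a Pherastar FS reader, relative to vehicle wells and 100-μM positive-control wells. EC50 and drug sensitivity score (normalised area under the curve) were derived from logistic dose-response curves fitted with four parameters.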

[2] = system: DLD1 NRF2-GOF; conditions: 72 h; CellTiter-Glo viability
How it was run: as §1

[3] = system: DLD1 NRF2-WT; experiment: TC50 cytotoxicity; higher = less toxic; conditions: 72 h; CellTox Green cytotoxicity
How it was run: (§2)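 After growth in DMEM with 10% FBS, NRF2 wild-type and CRISPR-edited isogenic DLD1 cells were seeded in 384-well plates and given library compounds at 5 concentrations across a 10,000-fold range. Fluorescence from CellTox Green was taken on a Pherastar FS reader after 72 h and normalised against vehicle wells and 100-μM positive-control wells. From logistic dose-response fits of cytotoxicity came the TC50 and the drug sensitivity score, a normalised area under the curve.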

[4] = system: DLD1 NRF2-GOF; experiment: TC50 cytotoxicity; higher = less toxic; conditions: 72 h; CellTox Green cytotoxicity
How it was run: as §2

[5] = system: DLD1 NRF2-WT; experiment: drug sensitivity score (DSS) cytotoxicity (DSS score); higher = more toxic; extreme values may be limits of the assay; conditions: 72 h; CellTox Green cytotoxicity
How it was run: as §2

[6] = system: DLD1 NRF2-GOF; experiment: as above; conditions: 72 h; CellTox Green cytotoxicity
How it was run: as §2

[7] = system: DLD1 NRF2-WT; experiment: drug sensitivity score (DSS) viability (DSS score); higher = more sensitive; extreme values may be limits of the assay; conditions: 72 h; CellTiter-Glo viability
How it was run: as §1

[8] = system: DLD1 NRF2-GOF; experiment: as above; conditions: 72 h; CellTiter-Glo viability
How it was run: as §1

Row | EC50 viability [1] [nM] | EC50 viability [2] [nM] | Compound | TC50 cytotoxicity [3] [µM] | TC50 cytotoxicity [4] [µM] | drug sensitivity score [5] | drug sensitivity score [6] | drug sensitivity score [7] | drug sensitivity score [8]
1 | 464 | 1440 | COc1cc(Br)c(Nc2nc(-c3c(C)nc4ncccn34)cs2)c(Br)c1 [PTC-209] | > 10 | > 10 | 0 | 0 | 10.8 | 6.2
2 | 75.1 | 103 | COc1ccc(-c2ccc3c(N4CCOC[C@@H]4C)nc(N4CCOC[C@@H]4C)nc3n2)cc1CO [AZD8055] | > 10 | > 10 | 0 | 0 | 19.1 | 17.4
3 | > 10000 | 17.4 | COC(=O)c1ccc([C@H]2c3[nH]c4ccccc4c3C[C@H](C(=O)OC)N2C(=O)CCl)cc1 [RSL3] | > 10 | > 10 | 0 | 0 | 6.6 | 9
4 | 1620 | 4130 | O=C1CCc2c(Oc3ccc4c(c3)[C@@H]3[C@H](O4)[C@H]3c3nc4cc(C(F)(F)F)ccc4[nH]3)ccnc2N1 [BGB-283] | > 10 | > 10 | 0 | 0 | 5 | 1.5
5 | 169 | 256 | O=C(NC1CCNCC1)c1n[nH]cc1NC(=O)c1c(Cl)cccc1Cl [AT7519] | > 10 | > 10 | 0 | 0 | 20 | 17.1
6 | 1590 | 1780 | COc1cc(N2CCN(C)CC2)ccc1Nc1nccc(-c2cn(C)c3cnccc23)n1 [AZ191] | > 10 | > 10 | 0.3 | 0 | 7 | 5.2
7 | 55.5 | 21.9 | O=C(Nc1c[nH]nc1-c1nc2ccc(CN3CCOCC3)cc2[nH]1)NC1CC1 [AT9283] | > 1 | 0.0267 | 2.6 | 9.8 | 8.6 | 15.1
8 | 1020 | 1440 | Cc1ncc(-c2ccnc(Nc3ccc(S(C)(=O)=O)cc3)n2)n1C(C)C [AZD-5438] | > 10 | > 10 | 0.5 | 1.9 | 10.8 | 8.7
9 | 0.9 | > 1000 | Cc1cc(-c2nc(-c3ccc(OC(F)(F)F)cc3)no2)nn1Cc1ccnc(N2CCN(C3CC3)CC2)c1 [BAY 87-2243] | > 1 | > 1 | 0 | 0 | 16.2 | 1.7
10 | 531 | 202 | Cc1ccc(NS(=O)(=O)c2cccc(C#N)c2)c2[nH]cc(C#N)c12 [E7820] | > 50 | > 50 | 0 | 0 | 15.3 | 22.9

More lines, now with the values behind:

Row | Compound | EC50 viability [1] [nM] | EC50 viability [2] [nM] | TC50 cytotoxicity [3] [µM] | TC50 cytotoxicity [4] [µM] | drug sensitivity score [5] | drug sensitivity score [6] | drug sensitivity score [7] | drug sensitivity score [8]
11 | COc1cc(Nc2ncc3c(n2)-c2ccc(Cl)cc2C(c2c(F)cccc2OC)=NC3)ccc1C(=O)O [Alisertib] | 27.9 | 47.8 | 0.939 | 0.205 | 2.8 | 6.6 | 10.3 | 15.9
12 | C=CC(=O)N1CCC(Oc2cc3c(Nc4ccc(Cl)c(Cl)c4F)ncnc3cc2OC)CC1 [Poziotinib] | 203 | 258 | > 1 | > 1 | 0 | 0 | 3.6 | 2.7
13 | C=C(c1ccc(C(=O)O)cc1)c1cc2c(cc1C)C(C)(C)CCC2(C)C [Bexarotene] | > 10000 | 1030 | > 10 | > 10 | 0 | 0 | 0 | 3.9
14 | Nc1nc(F)nc2c1ncn2[C@@H]1O[C@H](CO)[C@@H](O)[C@@H]1O [Fludarabine] | > 10000 | > 10000 | > 10 | > 10 | 0 | 0 | 0.1 | 0
15 | COc1cc2c(Oc3ccc4[nH]c(C)cc4c3F)ncnc2cc1OCCCN1CCCC1 [Cediranib] | 44.2 | 12.1 | > 1 | > 1 | 0 | 0 | 7 | 10.2
16 | CCN1CCN(Cc2ccc(Nc3ncc(F)c(-c4cc(F)c5nc(C)n(C(C)C)c5c4)n3)nc2)CC1 [Abemaciclib] | 26.6 | 134 | > 2.5 | > 2.5 | 0 | 0 | 11.5 | 6.6
17 | CO[C@@H]1[C@H](N(C)C(=O)c2ccccc2)C[C@H]2O[C@]1(C)n1c3ccccc3c3c4c(c5c6ccccc6n2c5c31)C(=O)NC4 [Midostaurin] | 880 | 499 | 0.686 | 0.801 | 12.4 | 12.9 | 9.8 | 12.4
18 | c1cn2cc(-c3ccc4cn[nH]c4c3)nc(Nc3ccc(N4CCOCC4)cc3)c2n1 [Entospletinib] | > 5000 | > 5000 | > 5 | > 5 | 0 | 0 | 0 | 0
19 | CCOC(=O)CCNc1cc(N2CCc3ccccc3CC2)nc(-c2ccccn2)n1 [GSK-J4] | 2950 | 3550 | > 100 | 2.8 | 0 | 7.8 | 17 | 16.4
20 | CC(=O)N(O)CCCCCNC(=O)CCC(=O)N(O)CCCCCNC(=O)CCC(=O)N(O)CCCCCN [Deferoxamine] | 3250 | 2010 | > 10 | > 10 | 0 | 0 | 4.8 | 7
21 | Cc1cc(Nc2ncc(Cl)c(Nc3ccccc3S(=O)(=O)C(C)C)n2)c(OC(C)C)cc1C1CCNCC1 [Ceritinib] | 546 | 728 | > 2.5 | > 2.5 | 0 | 0 | 5.2 | 4.2
22 | N#CCNC(=O)c1ccc(-c2ccnc(Nc3ccc(N4CCOCC4)cc3)n2)cc1 [Momelotinib] | 2800 | 3250 | > 10 | > 10 | 0.2 | 0.1 | 4.1 | 2.8
23 | COc1cc(C)[nH]c(=O)c1CNC(=O)c1c(C)n([C@H](C)C2CCOCC2)c2ccccc12 [CPI-360] | > 10000 | 198 | > 10 | > 10 | 0 | 0 | 0 | 7.4
24 | CC(C)(C)Cn1c(N)nc2ccc(-c3[nH]c(C(C)(C)C)nc3-c3ccc(F)cc3)nc21 [Ralimetinib] | 1940 | 2830 | > 10 | > 10 | 0 | 0 | 4.3 | 2.9
25 | CN1CCN(C2CCC(n3cc(-c4ccc(Oc5ccccc5)cc4)c4c(N)ncnc43)CC2)CC1 (stereo unspecified) | 1710 | 3270 | 3.23 | 3.09 | 4.5 | 5.3 | 8.8 | 5.4
26 | Cc1cnc(Nc2ccc(OCCN3CCCC3)cc2)nc1Nc1cccc(S(=O)(=O)NC(C)(C)C)c1 [Fedratinib] | 1410 | 1890 | 2.4 | 2.5 | 3.8 | 4.3 | 9.6 | 8.2

Row | Compound | EC50 viability [1] [nM] | EC50 viability [2] [nM] | TC50 cytotoxicity [3] [µM] | TC50 cytotoxicity [4] [µM] | drug sensitivity score [5] | drug sensitivity score [6] | drug sensitivity score [7] | drug sensitivity score [8]
27 | Clc1ccc(C(c2ccccc2Cl)C(Cl)Cl)cc1 (stereo unspecified) [Mitotane] | > 10000 | > 10000 | > 10 | > 10 | 0 | 0 | 0 | 1.8
28 | CC(=O)O[C@H]1C(=O)[C@@]2(C)[C@H]([C@H](OC(=O)c3ccccc3)[C@]3(O)C[C@H](OC(=O)[C@H](O)[C@@H](NC(=O)c4ccccc4)c4ccccc4)C(C)=C1C3(C)C)[C@]1(OC(C)=O)CO[C@@H]1C[C@@H]2O [Paclitaxel] | 3.2 | 3.9 | 0.0174 | > 1 | 10.5 | 4.7 | 24.1 | 24
29 | Cc1ccc(C(=O)Nc2cccc(C(F)(F)F)c2)cc1Nc1nc(-c2cccnc2)nc2c1cnn2C [NVP-BHG712] | > 10000 | > 10000 | > 10 | > 10 | 0 | 0 | 2.2 | 0.9
30 | CN1CCC(COc2cnc(-c3cccc(Cn4nc(-c5cccc(C#N)c5)ccc4=O)c3)nc2)CC1 [Tepotinib] | > 1000 | > 1000 | > 1 | > 1 | 0 | 0 | 0 | 0
31 | COc1cc2nccc(Oc3ccc(NC(=O)NC4CC4)c(Cl)c3)c2cc1C(N)=O [Lenvatinib] | > 2500 | > 2500 | > 2.5 | > 2.5 | 0 | 0 | 0.1 | 0
32 | Nc1nc(Cl)nc2c1ncn2[C@@H]1O[C@H](CO)[C@@H](O)[C@@H]1F [Clofarabine] | 166 | 171 | > 10 | > 10 | 0 | 0 | 11.8 | 13.2
33 | Cc1ccc(C(=O)Nc2ccc(Oc3cc4cnn(C)c4cc3-c3cn[nH]c3)c(F)c2)c(=O)n1-c1ccc(F)cc1 [Merestinib] | 207 | 98.6 | > 1 | > 1 | 0 | 0 | 4.2 | 7.9
34 | COc1cccc(OCCCN)c1-c1cc(Nc2cnc(C#N)cn2)n[nH]1 [Prexasertib] | 737 | 365 | 1.49 | 0.931 | 3.8 | 3.6 | 12.1 | 13.5
35 | Cc1cnc(NC(=O)Nc2cc(Br)c(C)cc2OC[C@@H]2CNCCO2)cn1 [Rabusertib] | > 1000 | > 1000 | > 1 | > 1 | 0 | 0 | 0.3 | 1
36 | COc1cc2c(Nc3ccc(Cl)c(Cl)c3F)ncnc2cc1OC[C@@H]1C[C@@H]2CN(C)C[C@@H]2C1 [Tesevatinib] | 167 | 425 | > 1 | > 1 | 0.1 | 0 | 5.1 | 1.2
37 | O=C(Nc1nc2cccc(-c3ccc(CN4CCS(=O)(=O)CC4)cc3)n2n1)C1CC1 [Filgotinib] | 2090 | 790 | > 10 | > 10 | 0 | 0.8 | 6.7 | 11.7
38 | CC[C@@]1(O)C(=O)OCc2c1cc1n(c2=O)Cc2cc3c(CN(C)C)c(O)ccc3nc2-1 [Topotecan] | 1500 | 1090 | 2.2 | 3.39 | 3.1 | 1.9 | 8.1 | 9.2
39 | CN1CCN(CCOc2cc(OC3CCOCC3)c3c(Nc4c(Cl)ccc5c4OCO5)ncnc3c2)CC1 [Saracatinib] | 2480 | > 10000 | > 10 | > 10 | 0.7 | 0.1 | 2.4 | 0.3
40 | C#Cc1cccc(Nc2ncnc3cc(OCCOC)c(OCCOC)cc23)c1 [Erlotinib] | 321 | 3540 | > 10 | > 10 | 0 | 0 | 6.9 | 1.3
41 | C=C1C[C@@H]2[C@H](CC[C@]3(C)C(=O)CC[C@@H]23)[C@@]2(C)C=CC(=O)C=C12 [Exemestane] | > 10000 | > 10000 | > 10 | > 10 | 0 | 0 | 0.1 | 0.9
42 | CC(=O)O[C@]1(C(C)=O)CC[C@H]2[C@@H]3C=C(C)C4=CC(=O)CC[C@]4(C)[C@H]3CC[C@@]21C [Megestrol acetate] | > 10000 | > 10000 | > 10 | > 10 | 0 | 0 | 0 | 2.4
